Laboratory results as given in PubChem BioAssay (NCI).
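Growth conditions: 96-well plates. Treatment: test compound, 48 hours, 5 concentrations. Analysis: linear interpolation between bracketing concentrations; unreached endpoints set to highest concentration. Definition used: TGI = concentration required for complete inhibition of growth.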

Test system: 786-0 renal
Assay: NCI tumour cell line growth inhibition, 48 h

| SMILES | TGI [µM] |
| --- | --- |
| CCOC(=O)CCC(=O)C1c2cccc(O)c2C(=O)c2c(O)cc(C)cc21 (stereo unspecified) | 2.63 |
| O=C(c1cccc2ccccc12)N1CCC(C2CCN(C(=O)c3cccc4ccccc34)CC2)CC1 | > 100 |

Test system: A498 renal
Assay: NCI tumour cell line growth inhibition, 48 h

| SMILES | TGI [µM] |
| --- | --- |
| CCOC(=O)CNC(=O)N(CC)C12CC3CC(CC(C3)C1)C2 | 274 |
| CCOC(=O)CCC(=O)C1c2cccc(O)c2C(=O)c2c(O)cc(C)cc21 (stereo unspecified) | 4.75 |
| CC(=O)Nc1ccc(/C=C/c2ccc(NC(=O)Nc3ccc(/C=C/c4ccc(NC(C)=O)cc4S(=O)(=O)O)c(S(=O)(=O)O)c3)cc2S(=O)(=O)O)c(S(=O)(=O)O)c1 | > 100 |
| O=C(c1cccc2ccccc12)N1CCC(C2CCN(C(=O)c3cccc4ccccc34)CC2)CC1 | > 100 |

Test system: A549 NSCLC
Assay: NCI tumour cell line growth inhibition, 48 h

| SMILES | TGI [µM] |
| --- | --- |
| CCOC(=O)CNC(=O)N(CC)C12CC3CC(CC(C3)C1)C2 | 602 |
| CCOC(=O)CCC(=O)C1c2cccc(O)c2C(=O)c2c(O)cc(C)cc21 (stereo unspecified) | 3.86 |
| CC(=O)Nc1ccc(/C=C/c2ccc(NC(=O)Nc3ccc(/C=C/c4ccc(NC(C)=O)cc4S(=O)(=O)O)c(S(=O)(=O)O)c3)cc2S(=O)(=O)O)c(S(=O)(=O)O)c1 | > 100 |
| O=C(c1cccc2ccccc12)N1CCC(C2CCN(C(=O)c3cccc4ccccc34)CC2)CC1 | > 100 |

Test system: ACHN renal
Assay: NCI tumour cell line growth inhibition, 48 h

| SMILES | TGI [µM] |
| --- | --- |
| CCOC(=O)CCC(=O)C1c2cccc(O)c2C(=O)c2c(O)cc(C)cc21 (stereo unspecified) | 2.41 |
| O=C(c1cccc2ccccc12)N1CCC(C2CCN(C(=O)c3cccc4ccccc34)CC2)CC1 | > 100 |

Test system: CAKI-1 renal
Assay: NCI tumour cell line growth inhibition, 48 h

| SMILES | TGI [µM] |
| --- | --- |
| CCOC(=O)CNC(=O)N(CC)C12CC3CC(CC(C3)C1)C2 | 313 |
| CCOC(=O)CCC(=O)C1c2cccc(O)c2C(=O)c2c(O)cc(C)cc21 (stereo unspecified) | 3.25 |
| O=C(c1cccc2ccccc12)N1CCC(C2CCN(C(=O)c3cccc4ccccc34)CC2)CC1 | > 100 |

Test system: CCRF-CEM leukemia
Assay: NCI tumour cell line growth inhibition, 48 h

| SMILES | TGI [µM] |
| --- | --- |
| CCOC(=O)CNC(=O)N(CC)C12CC3CC(CC(C3)C1)C2 | 388 |
| CCOC(=O)CCC(=O)C1c2cccc(O)c2C(=O)c2c(O)cc(C)cc21 (stereo unspecified) | 2.75 |
| CC(=O)Nc1ccc(/C=C/c2ccc(NC(=O)Nc3ccc(/C=C/c4ccc(NC(C)=O)cc4S(=O)(=O)O)c(S(=O)(=O)O)c3)cc2S(=O)(=O)O)c(S(=O)(=O)O)c1 | > 100 |
| O=C(c1cccc2ccccc12)N1CCC(C2CCN(C(=O)c3cccc4ccccc34)CC2)CC1 | > 100 |

Test system: COLO 205 colon
Assay: NCI tumour cell line growth inhibition, 48 h

| SMILES | TGI [µM] |
| --- | --- |
| CCOC(=O)CNC(=O)N(CC)C12CC3CC(CC(C3)C1)C2 | 227 |
| CCOC(=O)CCC(=O)C1c2cccc(O)c2C(=O)c2c(O)cc(C)cc21 (stereo unspecified) | 3.57 |
| CC(=O)Nc1ccc(/C=C/c2ccc(NC(=O)Nc3ccc(/C=C/c4ccc(NC(C)=O)cc4S(=O)(=O)O)c(S(=O)(=O)O)c3)cc2S(=O)(=O)O)c(S(=O)(=O)O)c1 | > 100 |
| O=C(c1cccc2ccccc12)N1CCC(C2CCN(C(=O)c3cccc4ccccc34)CC2)CC1 | > 100 |

Test system: DLD-1 colon
Assay: NCI tumour cell line growth inhibition, 48 h

| SMILES | TGI [µM] |
| --- | --- |
| CCOC(=O)CNC(=O)N(CC)C12CC3CC(CC(C3)C1)C2 | 44.9 |
| CCOC(=O)CCC(=O)C1c2cccc(O)c2C(=O)c2c(O)cc(C)cc21 (stereo unspecified) | 3.58 |
| CC(=O)Nc1ccc(/C=C/c2ccc(NC(=O)Nc3ccc(/C=C/c4ccc(NC(C)=O)cc4S(=O)(=O)O)c(S(=O)(=O)O)c3)cc2S(=O)(=O)O)c(S(=O)(=O)O)c1 | > 100 |
| O=C(c1cccc2ccccc12)N1CCC(C2CCN(C(=O)c3cccc4ccccc34)CC2)CC1 | > 100 |

Test system: DMS 114 small cell lung
Assay: NCI tumour cell line growth inhibition, 48 h

| SMILES | TGI [µM] |
| --- | --- |
| CCOC(=O)CNC(=O)N(CC)C12CC3CC(CC(C3)C1)C2 | 274 |
| CCOC(=O)CCC(=O)C1c2cccc(O)c2C(=O)c2c(O)cc(C)cc21 (stereo unspecified) | 0.8 |
| CC(=O)Nc1ccc(/C=C/c2ccc(NC(=O)Nc3ccc(/C=C/c4ccc(NC(C)=O)cc4S(=O)(=O)O)c(S(=O)(=O)O)c3)cc2S(=O)(=O)O)c(S(=O)(=O)O)c1 | > 100 |
| O=C(c1cccc2ccccc12)N1CCC(C2CCN(C(=O)c3cccc4ccccc34)CC2)CC1 | > 100 |

Test system: DMS 273 small cell lung
Assay: NCI tumour cell line growth inhibition, 48 h

| SMILES | TGI [µM] |
| --- | --- |
| CCOC(=O)CNC(=O)N(CC)C12CC3CC(CC(C3)C1)C2 | 315 |
| CCOC(=O)CCC(=O)C1c2cccc(O)c2C(=O)c2c(O)cc(C)cc21 (stereo unspecified) | 2.13 |
| CC(=O)Nc1ccc(/C=C/c2ccc(NC(=O)Nc3ccc(/C=C/c4ccc(NC(C)=O)cc4S(=O)(=O)O)c(S(=O)(=O)O)c3)cc2S(=O)(=O)O)c(S(=O)(=O)O)c1 | > 100 |
| O=C(c1cccc2ccccc12)N1CCC(C2CCN(C(=O)c3cccc4ccccc34)CC2)CC1 | > 100 |

Test system: EKVX NSCLC
Assay: NCI tumour cell line growth inhibition, 48 h

| SMILES | TGI [µM] |
| --- | --- |
| CCOC(=O)CNC(=O)N(CC)C12CC3CC(CC(C3)C1)C2 | 358 |
| CCOC(=O)CCC(=O)C1c2cccc(O)c2C(=O)c2c(O)cc(C)cc21 (stereo unspecified) | 3.91 |
| CC(=O)Nc1ccc(/C=C/c2ccc(NC(=O)Nc3ccc(/C=C/c4ccc(NC(C)=O)cc4S(=O)(=O)O)c(S(=O)(=O)O)c3)cc2S(=O)(=O)O)c(S(=O)(=O)O)c1 | > 100 |
| O=C(c1cccc2ccccc12)N1CCC(C2CCN(C(=O)c3cccc4ccccc34)CC2)CC1 | > 100 |

Test system: HCC-2998 colon
Assay: NCI tumour cell line growth inhibition, 48 h

| SMILES | TGI [µM] |
| --- | --- |
| CCOC(=O)CNC(=O)N(CC)C12CC3CC(CC(C3)C1)C2 | 402 |
| CCOC(=O)CCC(=O)C1c2cccc(O)c2C(=O)c2c(O)cc(C)cc21 (stereo unspecified) | 2.09 |
| CC(=O)Nc1ccc(/C=C/c2ccc(NC(=O)Nc3ccc(/C=C/c4ccc(NC(C)=O)cc4S(=O)(=O)O)c(S(=O)(=O)O)c3)cc2S(=O)(=O)O)c(S(=O)(=O)O)c1 | > 100 |

Test system: HCT-116 colon
Assay: NCI tumour cell line growth inhibition, 48 h

| SMILES | TGI [µM] |
| --- | --- |
| CCOC(=O)CNC(=O)N(CC)C12CC3CC(CC(C3)C1)C2 | 297 |
| CCOC(=O)CCC(=O)C1c2cccc(O)c2C(=O)c2c(O)cc(C)cc21 (stereo unspecified) | 1.88 |
| CC(=O)Nc1ccc(/C=C/c2ccc(NC(=O)Nc3ccc(/C=C/c4ccc(NC(C)=O)cc4S(=O)(=O)O)c(S(=O)(=O)O)c3)cc2S(=O)(=O)O)c(S(=O)(=O)O)c1 | > 100 |
| O=C(c1cccc2ccccc12)N1CCC(C2CCN(C(=O)c3cccc4ccccc34)CC2)CC1 | > 100 |

Test system: HCT-15 colon
Assay: NCI tumour cell line growth inhibition, 48 h

| SMILES | TGI [µM] |
| --- | --- |
| CCOC(=O)CNC(=O)N(CC)C12CC3CC(CC(C3)C1)C2 | 228 |
| CCOC(=O)CCC(=O)C1c2cccc(O)c2C(=O)c2c(O)cc(C)cc21 (stereo unspecified) | 2.25 |
| CC(=O)Nc1ccc(/C=C/c2ccc(NC(=O)Nc3ccc(/C=C/c4ccc(NC(C)=O)cc4S(=O)(=O)O)c(S(=O)(=O)O)c3)cc2S(=O)(=O)O)c(S(=O)(=O)O)c1 | > 100 |
| O=C(c1cccc2ccccc12)N1CCC(C2CCN(C(=O)c3cccc4ccccc34)CC2)CC1 | > 100 |

Test system: HL-60(TB) leukemia
Assay: NCI tumour cell line growth inhibition, 48 h

| SMILES | TGI [µM] |
| --- | --- |
| CCOC(=O)CNC(=O)N(CC)C12CC3CC(CC(C3)C1)C2 | 314 |
| CCOC(=O)CCC(=O)C1c2cccc(O)c2C(=O)c2c(O)cc(C)cc21 (stereo unspecified) | 1.8 |
| CC(=O)Nc1ccc(/C=C/c2ccc(NC(=O)Nc3ccc(/C=C/c4ccc(NC(C)=O)cc4S(=O)(=O)O)c(S(=O)(=O)O)c3)cc2S(=O)(=O)O)c(S(=O)(=O)O)c1 | > 100 |
| O=C(c1cccc2ccccc12)N1CCC(C2CCN(C(=O)c3cccc4ccccc34)CC2)CC1 | > 100 |

Test system: HOP-18 NSCLC
Assay: NCI tumour cell line growth inhibition, 48 h

| SMILES | TGI [µM] |
| --- | --- |
| CCOC(=O)CNC(=O)N(CC)C12CC3CC(CC(C3)C1)C2 | 536 |
| CCOC(=O)CCC(=O)C1c2cccc(O)c2C(=O)c2c(O)cc(C)cc21 (stereo unspecified) | 1.33 |
